The values below come from article PMC12647918 (Nature Communications, 2025).

Experiment [1] has as its target T1, TYMS (Homo sapiens, UniProt P04818). As to the kind of experiment: Time-resolved SICFA, 5-FU in K562 cells. The conditions noted are these: 50 µM 5-FU, 30 min, 10% fixative.
Experiment [2] relates to RNA post-transcriptional modification enzymes (PUS1, PUS3, PUS10, TRUB1, TRUB2, DUS3L, TRMT2A, EMG1). Description: Time-resolved SICFA, 5-FU in K562 cells. The class given is cell-based, Human. The conditions noted are these: 50 µM 5-FU, from 4 h, further enhanced with prolonged treatment.
The next experiment has as its system tRNA modifications. As to the kind of experiment: Measurement of tRNA modification levels by LC-MS/MS. In kind it is cell-based, Human. Particulars: K562 cells, 50 μM 5-FU.
Experiment [3] deals with C-1-tetrahydrofolate synthase (MTHFD1). Description: SICFA of MTX-treated living K562 cells. In kind it is cell-based, Human. Particulars: 2 µM MTX, 30 min.
For experiment [4], the system named is Methionine synthase (MTR). Description: SICFA of MTX-treated living K562 cells. In kind it is cell-based, Human. Particulars: 2 µM MTX, 30 min.
Another experiment deals with T2, HDAC6 (Homo sapiens, UniProt Q9UBN7).
T2 sequence (Q9UBN7 1-1215): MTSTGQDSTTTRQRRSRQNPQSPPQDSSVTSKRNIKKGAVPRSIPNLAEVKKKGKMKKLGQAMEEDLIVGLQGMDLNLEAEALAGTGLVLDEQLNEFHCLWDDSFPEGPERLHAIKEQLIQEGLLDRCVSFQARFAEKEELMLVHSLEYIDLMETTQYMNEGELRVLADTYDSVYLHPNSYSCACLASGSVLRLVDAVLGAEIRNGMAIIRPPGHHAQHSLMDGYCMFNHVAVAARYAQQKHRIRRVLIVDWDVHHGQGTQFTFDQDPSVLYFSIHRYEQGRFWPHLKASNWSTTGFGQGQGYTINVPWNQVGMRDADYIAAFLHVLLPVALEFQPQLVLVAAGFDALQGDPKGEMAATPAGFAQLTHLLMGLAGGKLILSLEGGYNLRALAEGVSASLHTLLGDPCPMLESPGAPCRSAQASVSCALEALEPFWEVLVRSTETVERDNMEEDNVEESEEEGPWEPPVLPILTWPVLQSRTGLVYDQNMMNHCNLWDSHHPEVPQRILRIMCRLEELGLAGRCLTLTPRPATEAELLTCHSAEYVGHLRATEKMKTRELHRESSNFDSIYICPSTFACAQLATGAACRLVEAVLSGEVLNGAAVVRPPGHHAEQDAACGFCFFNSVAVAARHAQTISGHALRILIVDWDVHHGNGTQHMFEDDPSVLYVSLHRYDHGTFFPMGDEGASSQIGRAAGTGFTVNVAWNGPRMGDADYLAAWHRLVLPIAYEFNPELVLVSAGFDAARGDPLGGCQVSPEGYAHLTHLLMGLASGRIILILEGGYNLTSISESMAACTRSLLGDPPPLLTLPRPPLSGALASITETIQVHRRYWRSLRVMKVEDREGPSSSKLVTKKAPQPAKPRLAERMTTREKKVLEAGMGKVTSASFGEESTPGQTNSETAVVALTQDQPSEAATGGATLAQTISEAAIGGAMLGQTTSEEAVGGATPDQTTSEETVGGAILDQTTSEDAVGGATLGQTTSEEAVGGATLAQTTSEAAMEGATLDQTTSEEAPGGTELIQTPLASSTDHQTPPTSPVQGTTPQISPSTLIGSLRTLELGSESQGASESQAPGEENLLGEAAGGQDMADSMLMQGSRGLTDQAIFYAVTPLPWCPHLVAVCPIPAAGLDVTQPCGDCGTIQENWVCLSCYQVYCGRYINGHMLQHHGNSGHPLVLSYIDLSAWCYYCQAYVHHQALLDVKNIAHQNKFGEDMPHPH
As to the kind of experiment: SICFA and PISA10 stability shift, Panobinostat. The conditions noted are these: both methods (SICFA and PISA10).

The next experiment has as its target HDAC2 (Homo sapiens, UniProt Q92769). The conditions noted are these: both methods (SICFA and PISA10).
Another experiment addresses HDAC3 (Homo sapiens, UniProt O15379). As to the kind of experiment: SICFA and PISA10 stability shift, Panobinostat. Particulars: SICFA versus PISA10.
For the next experiment, the target named is T3, HDAC8 (Homo sapiens, UniProt Q9BY41).
T3 sequence (Q9BY41 1-377): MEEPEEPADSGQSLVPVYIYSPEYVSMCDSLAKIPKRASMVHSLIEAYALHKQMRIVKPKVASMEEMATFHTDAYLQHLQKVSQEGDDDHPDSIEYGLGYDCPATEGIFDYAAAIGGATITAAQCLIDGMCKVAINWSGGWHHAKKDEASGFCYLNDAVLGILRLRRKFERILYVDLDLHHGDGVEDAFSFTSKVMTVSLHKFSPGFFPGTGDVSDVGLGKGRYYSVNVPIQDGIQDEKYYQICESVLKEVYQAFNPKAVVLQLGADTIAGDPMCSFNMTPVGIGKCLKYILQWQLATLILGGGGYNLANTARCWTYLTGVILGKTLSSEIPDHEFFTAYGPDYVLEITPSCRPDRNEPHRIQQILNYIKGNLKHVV
Description: SICFA and PISA10 stability shift, Panobinostat. The conditions noted are these: SICFA versus PISA10.

The next experiment concerns RB1. As to the kind of experiment: SICFA stability shift, SNS-032.
For a further experiment, the system named is LYN. Particulars: 1 µM dasatinib, cell lysate, kinobeads ref 26; cited from earlier work.
The next experiment deals with RIPK2. Particulars: 1 µM dasatinib, cell lysate, kinobeads ref 26; cited from earlier work.
In a further experiment the test system is CDKN1C. As to the kind of experiment: SICFA target identification, dasatinib. The class given is cell-based, Human. The conditions noted are these: dasatinib 1 μM, 30 min.
The test system of another experiment is YES1. Particulars: 1 µM dasatinib, cell lysate, kinobeads ref 26; cited from earlier work.
For experiment [5], the target named is T1, TYMS. The conditions noted are these: raltitrexed 1 µM, 30 min.

T1 sequence (P04818 2-313 limits assumed): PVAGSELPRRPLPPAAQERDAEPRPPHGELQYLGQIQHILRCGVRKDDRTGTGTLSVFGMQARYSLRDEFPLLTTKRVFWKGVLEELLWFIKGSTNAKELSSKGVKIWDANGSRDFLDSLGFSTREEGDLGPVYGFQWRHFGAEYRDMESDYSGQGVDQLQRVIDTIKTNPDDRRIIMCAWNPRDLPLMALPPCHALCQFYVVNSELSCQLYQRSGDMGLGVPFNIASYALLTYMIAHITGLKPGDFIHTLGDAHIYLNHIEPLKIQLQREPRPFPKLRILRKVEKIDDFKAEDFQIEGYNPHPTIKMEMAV
Chain of HDAC2 (Q92769 whole entry): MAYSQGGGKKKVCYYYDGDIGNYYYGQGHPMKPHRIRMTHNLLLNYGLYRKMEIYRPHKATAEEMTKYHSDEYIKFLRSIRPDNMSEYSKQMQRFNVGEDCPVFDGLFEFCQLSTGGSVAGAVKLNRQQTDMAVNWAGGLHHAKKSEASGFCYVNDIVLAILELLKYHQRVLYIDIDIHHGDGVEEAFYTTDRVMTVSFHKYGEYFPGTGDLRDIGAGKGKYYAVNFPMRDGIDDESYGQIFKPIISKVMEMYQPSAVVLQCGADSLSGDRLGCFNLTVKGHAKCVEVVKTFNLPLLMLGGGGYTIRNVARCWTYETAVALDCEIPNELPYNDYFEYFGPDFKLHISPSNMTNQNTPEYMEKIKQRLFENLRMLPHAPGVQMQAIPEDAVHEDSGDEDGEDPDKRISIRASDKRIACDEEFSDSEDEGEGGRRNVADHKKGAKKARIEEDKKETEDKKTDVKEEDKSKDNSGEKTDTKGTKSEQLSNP
Chain of HDAC3 (O15379 whole entry): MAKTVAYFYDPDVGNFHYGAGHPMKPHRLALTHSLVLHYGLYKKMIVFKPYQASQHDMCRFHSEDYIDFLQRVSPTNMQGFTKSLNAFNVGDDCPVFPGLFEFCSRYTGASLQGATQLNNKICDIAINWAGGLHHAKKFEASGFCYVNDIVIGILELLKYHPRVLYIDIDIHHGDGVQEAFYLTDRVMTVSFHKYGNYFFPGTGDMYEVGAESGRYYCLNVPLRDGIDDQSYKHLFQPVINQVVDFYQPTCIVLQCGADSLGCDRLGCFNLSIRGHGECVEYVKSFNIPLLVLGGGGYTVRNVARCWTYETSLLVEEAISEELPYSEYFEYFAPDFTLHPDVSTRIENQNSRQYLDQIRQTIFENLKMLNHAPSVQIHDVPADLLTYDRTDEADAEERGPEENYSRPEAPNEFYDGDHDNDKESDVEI
Chain of HDAC3 (Q9Y618 389-480 partner limits assumed): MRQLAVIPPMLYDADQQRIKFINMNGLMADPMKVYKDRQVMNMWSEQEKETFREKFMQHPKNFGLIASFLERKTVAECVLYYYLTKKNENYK

Consider `O=c1[nH]cc(F)c(=O)[nH]1` [5-FU, 5-Fluorouracil], for which the “TYMS stability, log2FC” value at TYMS [1] was 2.11. The “stability of RNA post-transcriptional modification enzymes” value in experiment [2] is reported as “significantly increased”. Further, the “changes in RNA (tRNA) modifications” value in the experiment on tRNA modifications (4 h) was “no significant changes”. Besides, in the experiment on tRNA modifications (24 h), the “tRNA modifications Ψ, ncm5U, hm5C, m5U” value was “significantly downregulated”.
On to `CN(Cc1cnc2nc(N)nc(N)c2n1)c1ccc(C(=O)N[C@@H](CCC(=O)O)C(=O)O)cc1` [MTX, Methotrexate], for which the MTHFD1 stability result in experiment [3] was “increased stability”. The “MTR stability, log2FC” value in [4] is −0.38.
For the compound `Cc1[nH]c2ccccc2c1CCNCc1ccc(/C=C/C(=O)NO)cc1` [Panobinostat], the HDAC6 stability entry at HDAC6 is “consistent stabilization”. In addition, the HDAC2 stability result at HDAC2 is on record as “consistent stabilization”. The HDAC3 stability entry on HDAC3 is “opposite trends”. Further, the HDAC8 target identification result on HDAC8 is given as “uniquely identified by SICFA”.
`CC(C)(C)c1cnc(CSc2cnc(NC(=O)C3CCNCC3)s2)o1` [SNS-032]: in the experiment with RB1, the “stability shift of substrate RB1, log2FC” value is greater than 0.5.
In the case of `Cc1nc(Nc2ncc(C(=O)Nc3c(C)cccc3Cl)s2)cc(N2CCN(CCO)CC2)n1` [dasatinib, Dasatinib], the reduction in binding result in the experiment with LYN, with RIPK2 and in the experiment on YES1 was “more than 50%” each time. Moreover, in the experiment on CDKN1C, the “stability of LYN's interacting partner CDKN1C” value was “reduced the stability”.
Turning to `Cc1nc2ccc(CN(C)c3ccc(C(=O)N[C@@H](CCC(=O)O)C(=O)O)s3)cc2c(=O)[nH]1` [raltitrexed, Raltitrexed], at TYMS [5] (Jurkat cells, 10% and 12% fixative), the “soluble TYMS content vs control (western blot)” value is recorded as “markedly higher”. In addition, the “target identification by SICFA LC-MS/MS” value on TYMS [5] (10% fixative, pool of 5,534 proteins) is “leading candidate target”.
